Laboratory results from patent publication US9481676B2, “Azepino[4,5-B]indoles and methods of use” (Medivation Technologies, Inc., priority 2008, dated 2016).

Columns and labels:
[1] = biological target: T1, human recombinant histamine H1 receptor (Homo sapiens, UniProt P35367); assay: Histamine H1 radioligand binding ([3H]Pyrilamine); conditions: compound at 1 μM; read-out: Histamine Binding (1 μM) H1, percent inhibition of specific binding
T1 construct: expressed in transfected cells; host or cells: CHO cells
Summary of the method: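 Membranes from CHO cells expressing the receptor were incubated with compound and 1.2 nM [3H]pyrilamine for 180 min at 25 °C in 50 mM Tris-HCl pH 7.4 with MgCl2, NaCl and sucrose; 1 μM pyrilamine defined non-specific binding. Filter-bound radioactivity was counted.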

[2] = biological target: T2, human recombinant adrenergic α2A receptor (Homo sapiens, UniProt P08913); assay: Adrenergic alpha2A radioligand binding ([3H]MK-912); conditions: compound at 1 μM; read-out: Adrenergic (1 μM) α2A, percent inhibition of specific binding
T2 construct: expressed in transfected cells; host or cells: insect Sf9 cells
T2 sequence (P08913 1-465): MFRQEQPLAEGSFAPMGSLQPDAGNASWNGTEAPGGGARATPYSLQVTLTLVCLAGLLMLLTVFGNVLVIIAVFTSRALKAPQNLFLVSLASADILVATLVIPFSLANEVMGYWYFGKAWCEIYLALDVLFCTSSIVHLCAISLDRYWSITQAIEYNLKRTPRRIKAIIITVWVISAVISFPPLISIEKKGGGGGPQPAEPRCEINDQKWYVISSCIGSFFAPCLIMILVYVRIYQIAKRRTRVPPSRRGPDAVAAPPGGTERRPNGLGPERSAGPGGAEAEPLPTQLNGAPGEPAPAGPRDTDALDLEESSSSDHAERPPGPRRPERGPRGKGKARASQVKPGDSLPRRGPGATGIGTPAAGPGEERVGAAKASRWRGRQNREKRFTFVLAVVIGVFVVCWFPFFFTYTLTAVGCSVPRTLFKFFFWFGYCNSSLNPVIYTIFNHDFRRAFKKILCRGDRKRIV
Summary of the method: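 Membranes of Sf9 cells expressing human recombinant α2A receptor were incubated with compound and 1 nM [3H]MK-912 for 60 min at 25 °C in 50 mM Tris-HCl pH 7.4, 12.5 mM MgCl2, 2 mM EDTA. Nonspecific binding: 10 μM WB-4101.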

[3] = biological target: T3, human recombinant dopamine D2L receptor (Homo sapiens, UniProt P14416); assay: Dopamine D2L radioligand binding ([3H]Spiperone); conditions: compound at 1 μM; read-out: Dopamine (1 μM) D2L, percent inhibition of specific binding
T3 construct: expressed in transfected cells; host or cells: CHO cells
Summary of the method: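 Human recombinant D2L receptor from CHO cells, in Tris-HCl buffer pH 7.4 with ascorbic acid, BSA and 150 mM NaCl; compounds at 1 μM or lower (1% DMSO) incubated with 0.16 nM [3H]spiperone, 120 min, 25° C. Nonspecific binding by 10 μM haloperidol; filter counting; % inhibition of specific binding.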

[4] = biological target: T4, human recombinant serotonin (5-Hydroxytryptamine) 5-HT2C receptor (Homo sapiens, UniProt P28335); assay: Serotonin 5-HT2C radioligand binding ([3H]Mesulergine); conditions: compound at 1 μM; read-out: Serotonin (1 μM) 5-HT2C, percent inhibition of specific binding
T4 construct: expressed in transfected cells; host or cells: CHO-K1 cells
T4 sequence (P28335 33-458): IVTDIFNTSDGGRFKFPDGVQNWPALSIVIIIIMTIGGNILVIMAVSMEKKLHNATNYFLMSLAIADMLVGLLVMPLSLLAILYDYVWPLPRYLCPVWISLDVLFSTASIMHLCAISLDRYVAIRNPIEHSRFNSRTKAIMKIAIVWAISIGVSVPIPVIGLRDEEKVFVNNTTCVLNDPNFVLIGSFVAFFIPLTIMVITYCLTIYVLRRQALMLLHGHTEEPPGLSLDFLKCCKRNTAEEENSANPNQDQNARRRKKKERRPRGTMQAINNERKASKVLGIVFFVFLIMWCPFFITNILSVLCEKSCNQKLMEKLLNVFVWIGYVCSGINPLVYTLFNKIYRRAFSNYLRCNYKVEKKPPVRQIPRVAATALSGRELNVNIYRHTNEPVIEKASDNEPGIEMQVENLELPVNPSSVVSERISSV
Summary of the method: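 Membranes from CHO-K1 cells expressing human 5-HT2C, incubated with 1 nM [3H]mesulergine for 60 min at 25 °C in 50 mM Tris-HCl pH 7.4 with ascorbic acid and pargyline.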

T3 sequence (P14416 whole entry): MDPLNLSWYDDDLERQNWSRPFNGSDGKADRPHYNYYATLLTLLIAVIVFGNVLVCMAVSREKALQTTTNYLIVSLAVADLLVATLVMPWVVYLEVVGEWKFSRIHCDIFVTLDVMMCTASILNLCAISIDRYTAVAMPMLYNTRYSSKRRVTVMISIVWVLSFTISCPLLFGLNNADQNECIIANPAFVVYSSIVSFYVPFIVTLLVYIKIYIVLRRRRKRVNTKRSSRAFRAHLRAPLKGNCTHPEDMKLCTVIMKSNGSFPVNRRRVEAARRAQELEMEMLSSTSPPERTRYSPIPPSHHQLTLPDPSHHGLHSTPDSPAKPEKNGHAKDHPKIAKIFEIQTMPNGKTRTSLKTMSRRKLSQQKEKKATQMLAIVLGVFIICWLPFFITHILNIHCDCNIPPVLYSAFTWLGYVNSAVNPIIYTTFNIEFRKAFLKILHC
T1 sequence (P35367 whole entry): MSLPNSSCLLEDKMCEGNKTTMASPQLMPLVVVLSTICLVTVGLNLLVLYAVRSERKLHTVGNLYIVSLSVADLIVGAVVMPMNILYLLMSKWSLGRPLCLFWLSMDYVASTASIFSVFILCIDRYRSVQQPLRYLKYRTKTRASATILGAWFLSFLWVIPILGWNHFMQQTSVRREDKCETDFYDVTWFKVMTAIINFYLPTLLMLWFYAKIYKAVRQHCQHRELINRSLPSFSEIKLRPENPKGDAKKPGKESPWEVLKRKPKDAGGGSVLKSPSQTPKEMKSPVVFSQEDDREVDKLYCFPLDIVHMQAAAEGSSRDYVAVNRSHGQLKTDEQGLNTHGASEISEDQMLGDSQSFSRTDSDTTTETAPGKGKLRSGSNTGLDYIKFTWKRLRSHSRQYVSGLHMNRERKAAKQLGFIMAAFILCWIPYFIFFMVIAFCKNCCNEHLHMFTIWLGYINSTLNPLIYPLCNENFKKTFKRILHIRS

SMILES: Cc1ccc2c(c1)c1c(n2C(=O)Cc2ccc(F)cc2)CCN(C)CC1 [Compound No. 285, 1-(3,9-dimethyl-2,3,4,5-tetrahydroazepino[4,5-b]indol-6(1H)-yl)-2-(4-fluorophenyl) ethanone]
- inhibition at 1 µM [1]: 68%
- inhibition at 1 µM [2]: 91%
- inhibition at 1 µM [3]: 21%
- inhibition at 1 µM [4]: 99%
